{"source": "patent US20060062725A1", "about": "“Methods for preparing metal-carborane complexes for radioimaging and radiotherapy” (priority 2004, published 2006)", "experiment": "Stability of [99mTc(CO)3(OH2)3]+ prepared with the KF kit", "type": "physicochemical", "settings": "prepared in the presence of KF", "method": "Commercially available kits contain sodium tartrate to prevent premature decomposition of [^99mTc(CO)3(OH2)3]^+. Thinking that the chelate was interfering with the fluoride mediated complexation reaction, a kit in which KF was substituted for tartrate was prepared.", "data": [{"substance": "[^99mTc(CO)3(OH2)3]^+", "values": [{"measurement": "time stable", "value": "greater than 6 h"}]}]}
